According to PMC8222254, “Self-assembly of an anion receptor with metal-dependent kinase inhibition and potent in vitro anti-cancer properties” (Nature Communications, 2021):
“And” between values parts separate entries of the source, which are not always exact repeats. Identical values can stand only once.

Key:
Test in all cases: Kinase inhibition screen, cell-free 33P ATP assay at 10 μM
Assay type in all cases: biochemical
[1] = molecular target: 140 purified human kinases (Homo sapiens, UniProt O43353)
Procedure, shortened: (§1)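 Radiometric ^33P ATP cell-free format with purified enzymes; both complexes run at 10 μM in duplicate, results plotted on a kinome map via HGNC symbols.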

[2] = molecular target: T1, 140 purified human kinases (Homo sapiens, UniProt Q12851); conditions: GCK
T1 sequence (Q12851 1-820): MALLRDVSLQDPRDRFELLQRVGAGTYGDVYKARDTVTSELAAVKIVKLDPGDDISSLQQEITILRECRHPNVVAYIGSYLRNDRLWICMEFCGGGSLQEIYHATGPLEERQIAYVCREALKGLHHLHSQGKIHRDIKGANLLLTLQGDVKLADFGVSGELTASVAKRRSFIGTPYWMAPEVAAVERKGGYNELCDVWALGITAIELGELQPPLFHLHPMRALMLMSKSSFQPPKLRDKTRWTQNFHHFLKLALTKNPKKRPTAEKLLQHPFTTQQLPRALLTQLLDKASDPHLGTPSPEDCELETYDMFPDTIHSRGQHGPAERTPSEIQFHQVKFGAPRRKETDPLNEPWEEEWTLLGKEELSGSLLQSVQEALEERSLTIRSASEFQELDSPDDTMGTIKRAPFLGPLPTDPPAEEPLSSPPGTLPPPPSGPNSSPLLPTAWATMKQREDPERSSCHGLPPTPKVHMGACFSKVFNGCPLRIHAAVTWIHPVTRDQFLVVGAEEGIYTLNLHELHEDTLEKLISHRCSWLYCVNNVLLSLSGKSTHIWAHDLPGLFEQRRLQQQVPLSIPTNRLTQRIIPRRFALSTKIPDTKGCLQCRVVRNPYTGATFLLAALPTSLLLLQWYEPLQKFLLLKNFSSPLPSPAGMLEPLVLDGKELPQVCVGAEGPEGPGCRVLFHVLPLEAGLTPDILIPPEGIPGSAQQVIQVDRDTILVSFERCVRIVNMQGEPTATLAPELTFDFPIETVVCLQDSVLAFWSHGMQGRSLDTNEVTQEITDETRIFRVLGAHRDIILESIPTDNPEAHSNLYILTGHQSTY
Procedure, shortened: as §1

[3] = molecular target: 140 purified human kinases (Homo sapiens, UniProt Q13627); conditions: DYRK1A
Procedure, shortened: as §1

[4] = molecular target: 140 purified human kinases (Homo sapiens, UniProt Q15759); conditions: p38b MAPK
Procedure, shortened: as §1

[5] = molecular target: T2, 140 purified human kinases (Homo sapiens, UniProt Q8IYT8)
T2 sequence (Q8IYT8 1-1036): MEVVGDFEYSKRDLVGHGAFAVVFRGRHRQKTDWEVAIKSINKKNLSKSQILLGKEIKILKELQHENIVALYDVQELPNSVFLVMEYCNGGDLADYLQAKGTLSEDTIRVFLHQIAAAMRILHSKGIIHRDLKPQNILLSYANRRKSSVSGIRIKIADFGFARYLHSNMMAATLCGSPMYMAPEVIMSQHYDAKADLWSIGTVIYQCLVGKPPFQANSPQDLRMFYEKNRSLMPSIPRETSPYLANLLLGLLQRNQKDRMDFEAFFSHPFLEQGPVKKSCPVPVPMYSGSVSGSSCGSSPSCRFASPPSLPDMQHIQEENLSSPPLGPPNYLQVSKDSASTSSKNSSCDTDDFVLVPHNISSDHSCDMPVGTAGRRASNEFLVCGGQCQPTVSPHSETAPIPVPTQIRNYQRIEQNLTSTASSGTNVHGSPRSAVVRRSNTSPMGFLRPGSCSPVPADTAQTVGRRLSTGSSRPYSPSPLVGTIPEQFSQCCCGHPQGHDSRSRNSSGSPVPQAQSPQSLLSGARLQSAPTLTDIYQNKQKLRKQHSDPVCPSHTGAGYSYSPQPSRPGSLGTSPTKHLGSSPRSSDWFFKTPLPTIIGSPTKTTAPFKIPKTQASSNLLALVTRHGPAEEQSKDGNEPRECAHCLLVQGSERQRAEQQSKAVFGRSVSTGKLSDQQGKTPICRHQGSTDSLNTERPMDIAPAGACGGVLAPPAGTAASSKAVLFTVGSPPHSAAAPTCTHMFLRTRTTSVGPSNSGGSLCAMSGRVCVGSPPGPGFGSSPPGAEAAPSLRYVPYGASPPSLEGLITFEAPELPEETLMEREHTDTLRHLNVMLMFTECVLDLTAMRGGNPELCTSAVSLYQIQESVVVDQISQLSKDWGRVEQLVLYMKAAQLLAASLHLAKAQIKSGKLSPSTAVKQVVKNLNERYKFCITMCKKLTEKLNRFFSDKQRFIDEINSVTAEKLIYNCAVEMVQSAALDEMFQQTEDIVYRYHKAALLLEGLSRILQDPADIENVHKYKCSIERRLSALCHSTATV
Procedure, shortened: as §1

Chain of 140 purified human kinases (Homo sapiens, UniProt Q15759) (Q15759 whole entry): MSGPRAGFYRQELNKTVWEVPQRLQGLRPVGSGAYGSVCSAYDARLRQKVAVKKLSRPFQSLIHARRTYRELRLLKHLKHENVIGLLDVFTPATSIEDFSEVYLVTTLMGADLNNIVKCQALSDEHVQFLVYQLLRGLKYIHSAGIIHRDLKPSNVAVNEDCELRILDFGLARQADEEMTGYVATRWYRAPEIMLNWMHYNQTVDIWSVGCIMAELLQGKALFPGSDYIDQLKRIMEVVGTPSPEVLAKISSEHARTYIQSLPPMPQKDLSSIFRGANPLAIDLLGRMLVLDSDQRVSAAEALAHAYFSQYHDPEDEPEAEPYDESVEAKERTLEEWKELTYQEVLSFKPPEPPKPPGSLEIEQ
Chain of 140 purified human kinases (Homo sapiens, UniProt O43353) (O43353 whole entry): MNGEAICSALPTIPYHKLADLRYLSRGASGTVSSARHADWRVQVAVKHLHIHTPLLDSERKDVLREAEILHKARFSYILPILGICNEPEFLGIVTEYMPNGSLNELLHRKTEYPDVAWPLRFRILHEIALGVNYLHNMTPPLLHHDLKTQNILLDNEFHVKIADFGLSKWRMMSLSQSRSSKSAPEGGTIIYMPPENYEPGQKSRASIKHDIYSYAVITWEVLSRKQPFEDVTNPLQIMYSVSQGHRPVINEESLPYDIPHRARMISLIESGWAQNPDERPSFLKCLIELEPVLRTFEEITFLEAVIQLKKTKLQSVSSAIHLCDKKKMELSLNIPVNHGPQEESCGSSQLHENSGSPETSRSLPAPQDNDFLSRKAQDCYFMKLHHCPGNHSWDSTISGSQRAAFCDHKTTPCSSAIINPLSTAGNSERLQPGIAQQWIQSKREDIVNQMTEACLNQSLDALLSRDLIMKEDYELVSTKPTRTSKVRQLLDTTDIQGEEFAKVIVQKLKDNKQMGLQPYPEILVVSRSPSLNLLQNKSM

In the case of [Cu+2].[Cu+2].[Cu+2].c1ccc(-c2csc(NCCN(CCNc3nc(-c4ccccn4)cs3)CCNc3nc(-c4ccccn4)cs3)n2)nc1.c1ccc(-c2csc(NCCN(CCNc3nc(-c4ccccn4)cs3)CCNc3nc(-c4ccccn4)cs3)n2)nc1 [[L2Cu3]6+], the “% Inhibition Run 1” value ([1]; RIPK2) is reported as 16.3%, the “% Inhibition Run 2” value ([1]; RIPK2) is reported as 2.5% and the “% Inhibition, Mean” value ([1]; RIPK2) is reported as 9%. For the same compound, the mean % activity ([1]; RIPK2) was 91%, the “% activity” value ([1]; RIPK2, Run 1) was 83.7% and the “% activity” value ([1]; RIPK2, Run 2) was 97.5%. The “% Inhibition Run 1” value [2] was 83.9%, the “% Inhibition Run 2” value [2] was 84.3% and the “% Inhibition, Mean” value [2] was 84%. For the same compound, the mean % activity [2] was 16%, the “% activity” value ([2]; Run 1) was 16.1% and the “% activity” value ([2]; Run 2) was 15.7%. The “% Inhibition Run 1” value [3] was 18.5%, the “% Inhibition Run 2” value [3] was 12.4% and the “% Inhibition, Mean” value [3] was 15%. The mean % activity [3] was 85%, the “% activity” value ([3]; Run 1) was 81.5% and the “% activity” value ([3]; Run 2) was 87.6%. The “% Inhibition Run 1” value [4] was 24.1%, the “% Inhibition Run 2” value [4] was 0.3% and the “% Inhibition, Mean” value [4] was 12%. The mean % activity [4] was 88%, the “% activity” value ([4]; Run 1) was 75.9% and the “% activity” value ([4]; Run 2) was 99.7%. For the same compound, the “% Inhibition Run 1” value ([5]; ULK2) was 48%, the “% Inhibition Run 2” value ([5]; ULK2) was 52.6% and the “% Inhibition, Mean” value ([5]; ULK2) was 50%. For the same compound, the mean % activity ([5]; ULK2) was 50%, the “% activity” value ([5]; ULK2, Run 1) was 52% and the “% activity” value ([5]; ULK2, Run 2) was 47.4%.

With CC(=O)[O-].CC(=O)[O-].CC(=O)[O-].CC(=O)[O-].CC(=O)[O-].CC(=O)[O-].[Zn+2].[Zn+2].[Zn+2].c1ccc(-c2csc(NCCN(CCNc3nc(-c4ccccn4)cs3)CCNc3nc(-c4ccccn4)cs3)n2)nc1.c1ccc(-c2csc(NCCN(CCNc3nc(-c4ccccn4)cs3)CCNc3nc(-c4ccccn4)cs3)n2)nc1 [[L2Zn3]6+] the “% Inhibition, Mean” value ([1]; RIPK2) was 5.55%, the “% Inhibition, Run 1 / Run 2” value ([1]; RIPK2) was 8% and 3% and the mean % activity ([1]; RIPK2) was 94%. For the same compound, the “% activity” value ([1]; RIPK2, duplicate runs) was 92% and 97%, the “% Inhibition, Mean” value [2] was 83% and the “% Inhibition, Run 1 / Run 2” value [2] was 88% and 78%. For the same compound, the mean % activity [2] was 17%, the “% Activity inhibition Mean” value ([2]; 10 µM) was 83.0% and the “% Activity inhibition Run 1” value ([2]; 10 µM) was 88%. For the same compound, the “% Activity inhibition Run 2” value ([2]; 10 µM) was 78%, the “% Activity remaining Run 1” value ([2]; 10 µM) was 12% and the “% Activity remaining Run 2” value ([2]; 10 µM) was 22%. For the same compound, the “% activity” value ([2]; duplicate runs) was 12% and 22%, the “% Inhibition, Mean” value [3] was 28% and the “% Inhibition, Run 1 / Run 2” value [3] was 34% and 22%. The mean % activity [3] was 72%, the “% activity” value ([3]; duplicate runs) was 67% and 78% and the “% Inhibition, Mean” value [4] was -0.45%. The “% Inhibition, Run 1 / Run 2” value [4] was 0.2% and -1.1%, the mean % activity [4] was 100% and the “% activity” value ([4]; duplicate runs) was 100% and 101%. For the same compound, the “% Activation, Mean value” ([5]; ULK2) was 2%, the “% Inhibition, Mean” value ([5]; ULK2) was -2% and the mean % activity ([5]; ULK2) was 102%. For the same compound, the “% activity” value ([5]; ULK2, duplicate runs) was 95% and 109%.
